Reference: PubChem BioAssay (NCI)
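The concentration for 50% growth inhibition is given as GI50. TGI is the concentration that stops growth completely.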

Columns and labels:
Experiment in all cases: NCI tumour cell line growth inhibition, 384-well format
786-0 renal = test system: 786-0 renal
A498 renal = test system: A498 renal
A549 NSCLC = test system: A549 NSCLC
ACHN renal = test system: ACHN renal
BT-549 breast = test system: BT-549 breast
CAKI-1 renal = test system: CAKI-1 renal
CCRF-CEM leukemia = test system: CCRF-CEM leukemia
COLO 205 colon = test system: COLO 205 colon
DU-145 prostate = test system: DU-145 prostate
EKVX NSCLC = test system: EKVX NSCLC
HCC-2998 colon = test system: HCC-2998 colon
HCT-116 colon = test system: HCT-116 colon
HCT-15 colon = test system: HCT-15 colon
HL-60(TB) leukemia = test system: HL-60(TB) leukemia
HOP-62 NSCLC = test system: HOP-62 NSCLC
HOP-92 NSCLC = test system: HOP-92 NSCLC
HS 578T breast = test system: HS 578T breast
HT29 colon = test system: HT29 colon
IGROV1 ovarian = test system: IGROV1 ovarian
KM12 colon = test system: KM12 colon
LOX IMVI melanoma = test system: LOX IMVI melanoma
M14 melanoma = test system: M14 melanoma
MALME-3M melanoma = test system: MALME-3M melanoma
MCF7 breast = test system: MCF7 breast
MDA-MB-231 breast = test system: MDA-MB-231 breast
MDA-MB-435 melanoma = test system: MDA-MB-435 melanoma
MDA-MB-468 breast = test system: MDA-MB-468 breast
MOLT-4 leukemia = test system: MOLT-4 leukemia
NCI-H226 lung = test system: NCI-H226 lung
NCI-H23 lung = test system: NCI-H23 lung
NCI-H322M lung = test system: NCI-H322M lung
NCI-H460 NSCLC = test system: NCI-H460 NSCLC
NCI-H522 lung = test system: NCI-H522 lung
NCI/ADR-RES ovarian = test system: NCI/ADR-RES ovarian
OVCAR-3 ovarian = test system: OVCAR-3 ovarian
OVCAR-4 ovarian = test system: OVCAR-4 ovarian
OVCAR-5 ovarian = test system: OVCAR-5 ovarian
OVCAR-8 ovarian = test system: OVCAR-8 ovarian
PC-3 prostate = test system: PC-3 prostate
RPMI-8226 leukemia = test system: RPMI-8226 leukemia
RXF 393 renal = test system: RXF 393 renal
SF-268 CNS = test system: SF-268 CNS
SF-295 CNS = test system: SF-295 CNS
SF-539 CNS = test system: SF-539 CNS
SK-MEL-2 melanoma = test system: SK-MEL-2 melanoma
SK-MEL-28 melanoma = test system: SK-MEL-28 melanoma
SK-MEL-5 melanoma = test system: SK-MEL-5 melanoma
SK-OV-3 ovarian = test system: SK-OV-3 ovarian
SN12C renal = test system: SN12C renal
SNB-19 CNS = test system: SNB-19 CNS
SNB-75 CNS = test system: SNB-75 CNS
SR leukemia = test system: SR leukemia
SW-620 colon = test system: SW-620 colon
T-47D breast = test system: T-47D breast
TK-10 renal = test system: TK-10 renal
U251 glioblastoma = test system: U251 glioblastoma
UACC-257 melanoma = test system: UACC-257 melanoma
UACC-62 melanoma = test system: UACC-62 melanoma
UO-31 renal = test system: UO-31 renal

## O=C(Nc1ccc(OC(F)(F)Cl)cc1)c1cnc(N2CC[C@@H](O)C2)c(-c2ccn[nH]2)c1
786-0 renal
  GI50: 5.38 µM
  TGI: 17.2 µM
A498 renal
  GI50: 13.6 µM
  TGI: 26.8 µM
A549 NSCLC
  GI50: 13.3 µM
  TGI: 29.7 µM
ACHN renal
  GI50: 12.1 µM
  TGI: 29.4 µM
BT-549 breast
  GI50: 14.8 µM
  TGI: 28.2 µM
CAKI-1 renal
  GI50: 8.07 µM
  TGI: 21.1 µM
CCRF-CEM leukemia
  GI50: 3.01 µM
  TGI: 10.6 µM
COLO 205 colon
  GI50: 5.01 µM
  TGI: 16.6 µM
DU-145 prostate
  GI50: 17.7 µM
  TGI: 32.8 µM
EKVX NSCLC
  GI50: 14 µM
  TGI: 28.8 µM
HCC-2998 colon
  GI50: 2.85 µM
  TGI: 8.48 µM
HCT-116 colon
  GI50: 10.9 µM
  TGI: 23.7 µM
HCT-15 colon
  GI50: 2.94 µM
  TGI: 10.9 µM
HL-60(TB) leukemia
  GI50: 2.77 µM
  TGI: 6.75 µM
HOP-62 NSCLC
  GI50: 9.4 µM
  TGI: 22.7 µM
HOP-92 NSCLC
  GI50: 13.7 µM
  TGI: 26.8 µM
HS 578T breast
  GI50: 12.6 µM
  TGI: 25.3 µM
HT29 colon
  GI50: 2.57 µM
  TGI: 6.27 µM
IGROV1 ovarian
  GI50: 10.9 µM
  TGI: 23.6 µM
KM12 colon
  GI50: 4.57 µM
  TGI: 15.4 µM
LOX IMVI melanoma
  GI50: 7.26 µM
  TGI: 20.2 µM
M14 melanoma
  GI50: 10.5 µM
  TGI: 22.9 µM
MALME-3M melanoma
  GI50: 6.97 µM
  TGI: 20.5 µM
MCF7 breast
  GI50: 9.56 µM
  TGI: 21.9 µM
MDA-MB-231 breast
  GI50: 10.4 µM
  TGI: 22.5 µM
MDA-MB-435 melanoma
  GI50: 12 µM
  TGI: 24.8 µM
MDA-MB-468 breast
  GI50: 3.89 µM
  TGI: 15 µM
MOLT-4 leukemia
  GI50: 5.82 µM
  TGI: 18.3 µM
NCI-H226 lung
  GI50: 4.76 µM
  TGI: 17 µM
NCI-H23 lung
  GI50: 12.3 µM
  TGI: 25.9 µM
NCI-H322M lung
  GI50: 12.3 µM
  TGI: 25.1 µM
NCI-H460 NSCLC
  GI50: 3.95 µM
  TGI: 13.3 µM
NCI-H522 lung
  GI50: 11.7 µM
  TGI: 24.3 µM
NCI/ADR-RES ovarian
  GI50: 19.3 µM
  TGI: 41.9 µM
OVCAR-3 ovarian
  GI50: 11.1 µM
  TGI: 23.3 µM
OVCAR-4 ovarian
  GI50: 6.92 µM
  TGI: 26.9 µM
OVCAR-5 ovarian
  GI50: 12.1 µM
  TGI: 25.7 µM
OVCAR-8 ovarian
  GI50: 6.65 µM
  TGI: 19.5 µM
PC-3 prostate
  GI50: 13.6 µM
  TGI: 26.8 µM
RPMI-8226 leukemia
  GI50: 3.27 µM
  TGI: 12.2 µM
RXF 393 renal
  GI50: 3.84 µM
  TGI: 14.1 µM
SF-268 CNS
  GI50: 10.6 µM
  TGI: 23.4 µM
SF-295 CNS
  GI50: 11.1 µM
  TGI: 23.2 µM
SF-539 CNS
  GI50: 10.1 µM
  TGI: 22.5 µM
SK-MEL-2 melanoma
  GI50: 15.4 µM
  TGI: 28.8 µM
SK-MEL-28 melanoma
  GI50: 15 µM
  TGI: 28.5 µM
SK-MEL-5 melanoma
  GI50: 4.81 µM
  TGI: 17.2 µM
SK-OV-3 ovarian
  GI50: 16 µM
  TGI: 30.7 µM
SN12C renal
  GI50: 13.7 µM
  TGI: 26.8 µM
SNB-19 CNS
  GI50: 14.5 µM
  TGI: 27.9 µM
SNB-75 CNS
  GI50: 7.86 µM
  TGI: 20.9 µM
SR leukemia
  GI50: 1.94 µM
  TGI: 4.74 µM
SW-620 colon
  GI50: 7.75 µM
  TGI: 19.7 µM
T-47D breast
  GI50: 2.97 µM
  TGI: 10.7 µM
TK-10 renal
  GI50: 10.8 µM
  TGI: 26.4 µM
U251 glioblastoma
  GI50: 7.26 µM
  TGI: 20 µM
UACC-257 melanoma
  GI50: 9.12 µM
  TGI: 22.5 µM
UACC-62 melanoma
  GI50: 11.6 µM
  TGI: 23.9 µM
UO-31 renal
  GI50: 11.6 µM
  TGI: 24.2 µM
